Data: US7384927B2, “Alkylated porphyrins as pesticides acting both in the presence and absence of light” (priority 2003, dated 2008)

Assays:
Type in all cases: in vivo
[1] = tested on: Ceratitis capitata flies; assay: Insecticidal action in the dark: fly survival after porphyrin bait; conditions: for mortality of the flies in the dark: C. capitata, even at the largest porphyrin dose (8.1 μM); for Survival (% of control untreated flies): dark, fed 24 h, survival 12 h after change to porphyrin-free bait
Method: For comparison, data obtained with two conventional porphyrins (as those described in WO 97/29637) offered to the insects for 24 h at a 3.0 and 8.1 μmolar concentration in the same bait are also shown. In all cases, the survival was determined 12 hours after changing food supply from a porphyrin-containing to a porphyrin-free bait. […] These flies were then used in the various experimental sessions. […] The number of survivors was evaluated 12 h after switching from administration of a porphyrin-containing bait to a porphyrin-free bait. In none of the experiments was mortality or any apparent toxic effect observed in control flies (flies not fed with porphyrin, see survival at 0 μM porphyrin concentration).

[2] = tested on: Ceratitis capitata flies; assay: Photoinsecticidal action: fly survival after bait and visible light irradiation (artificial lamp); conditions: 8 μM in bait, survival 10 h after irradiation
Method: (§1) Porphyrins: • a) meso[tri(N-methyl-pyridyl), mono(N-dodecyl-pyridyl)]porphine (abbr.: C12) • b) meso[tri(N-methyl-pyridyl), mono(N-tetradecyl-pyridyl)]porphine (abbr.: C14) • c) meso[tri(N-methyl-pyridyl), mono(N-octadecyl-pyridyl)]porphine (abbr.: C18) Bait: Aqueous solution containing 10% sucrose and 1% autolysed yeast Flies: • a) Ceratitis capitata (fruit fly) age: 1 week; weight: 5-6 mg • b) Bactrocera oleae (olive fly) age: 10 days; weight: 4-4.5 mg • c) Stomoxis calcitrans (stable fly) age: 10 days; weight: 12 mg Irradiation: • a) High pressure halogen lamp, equipped with infrared and UV filters, emission 360-850 nm, operated at intensities in the 760-2,000 μE s^−1m^−2 range • b) Sunlight, mid June at Padua latitude, average intensity of […] μE s^−1m^−2 with minimum and maximum values of 950 and, respectively, 1,380 μE s^−1m^−2
The irradiations were performed for 1 h, then the flies were kept in dim light for monitoring the survival. Control flies were irradiated under identical conditions after feeding with a porphyrin-free bait.
The irradiations were performed for 1 h at a fluence-rate of 1220 μE s^−1m^−2. The survival was evaluated 10 h after the end of irradiation. […] The porphyrins are abbreviated as following: HP: haematoporphyrin; C1: meso-tetra(N-methyl-pyridyl)porphine.
The survival was evaluated 10 h after the end of irradiation.
An appropriate number of flies (50 flies per each experiment) was caged in 115×55×70 mm Plexiglas cages with several holes (ø=0.5 mm) and starved for 36 h. Then, depending on the protocol to be adopted for each specific experiment, the flies were fed with the bait (10% sucrose and 1% autolysed yeast in neutral aqueous solution), which was either porphyrin-free or added with a predetermined concentration of the porphyrin. These flies were then used in the various experimental sessions. […]

[3] = tested on: Ceratitis capitata flies; assay: Photoinsecticidal action: fly survival after bait and sunlight irradiation; conditions: 8 μM in bait, 12 h after feeding, survival 1 h after irradiation
Method: as §1
The survival was evaluated 1 h after the end of irradiation.
An appropriate number of flies (50 flies per each experiment) was caged in 115×55×70 mm Plexiglas cages with several holes (ø=0.5 mm) and starved for 36 h. Then, depending on the protocol to be adopted for each specific experiment, the flies were fed with the bait (10% sucrose and 1% autolysed yeast in neutral aqueous solution), which was either porphyrin-free or added with a predetermined concentration of the porphyrin. These flies were then used in the various experimental sessions.

[4] = fluence-rate 760 μE s^−1m^−2, irradiated 24 h after feeding (title)
[5] = fluence-rate 1220 μE s^−1m^−2, irradiated 24 h after feeding (title)
[6] = fluence-rate 1500 μE s^−1m^−2, irradiated 24 h after feeding (title)
[7] = fluence-rate 2000 μE s^−1m^−2, irradiated 24 h after feeding (title)
[8] = time interval feeding-irradiation 0 h, irradiation 1 h at 1220 μE s^−1m^−2
[9] = time interval feeding-irradiation 12 h, irradiation 1 h at 1220 μE s^−1m^−2
[10] = time interval feeding-irradiation 24 h, irradiation 1 h at 1220 μE s^−1m^−2
[11] = time interval feeding-irradiation 48 h, irradiation 1 h at 1220 μE s^−1m^−2

Row | Structure (SMILES) | mortality of the flies in the dark [1] | Survival (% of control untreated flies) ([1]; 3.00 μM in bait) | Survival (% of control untreated flies) ([1]; 8.10 μM in bait) | Survival (% of control untreated flies) [2, 4] | Survival (% of control untreated flies) [2, 5] | Survival (% of control untreated flies) [2, 6] | Survival (% of control untreated flies) [2, 7] | Survival (% of control untreated flies) [2, 8] | Survival (% of control untreated flies) [2, 9] | Survival (% of control untreated flies) [2, 10] | Survival (% of control untreated flies) [2, 11] | Survival (% of control untreated flies) ([3]; sunlight 15 min) | Survival (% of control untreated flies) ([3]; sunlight 30 min) | Survival (% of control untreated flies) ([3]; sunlight 45 min) | Survival (% of control untreated flies) ([3]; sunlight 60 min)
1 | C[n+]1ccc(-c2c3nc(c(-c4cc[n+](C)cc4)c4ccc([nH]4)c(-c4cc[n+](C)cc4)c4nc(c(-c5cc[n+](C)cc5)c5ccc2[nH]5)C=C4)C=C3)cc1 [C1, Meso-tetra (N-methyl-pyridyl) porphine, reference compound] | no mortality of the flies was observed | 100 % of control untreated flies | 100 % of control untreated flies | 100 % of control untreated flies | 90 % of control untreated flies | 81 % of control untreated flies | 73 % of control untreated flies | 90 % of control untreated flies | 94 % of control untreated flies | 100 % of control untreated flies | 97 % of control untreated flies | 100 % of control untreated flies | 100 % of control untreated flies | 93 % of control untreated flies | 97 % of control untreated flies
2 | CC1=C(CCC(=O)O)c2cc3[nH]c(cc4nc(cc5[nH]c(cc1n2)c(C)c5C(C)O)C(C)=C4C(C)O)c(C)c3CCC(=O)O (stereo not drawn) [Hp, Haematoporphyrin, reference compound] | no mortality of the flies was observed | 100 % of control untreated flies | 100 % of control untreated flies | 81 % of control untreated flies | 20 % of control untreated flies | 11 % of control untreated flies | 8 % of control untreated flies | 20 % of control untreated flies | 37 % of control untreated flies | 58 % of control untreated flies | 61 % of control untreated flies | 75 % of control untreated flies | 70 % of control untreated flies | 64 % of control untreated flies | 40 % of control untreated flies
